Data taken from the NIST ThermoML archive (doi:10.1016/j.tca.2012.02.017).
Numbers after ± are expanded uncertainties.

Key:
[1] = molar heat capacity at constant pressure; xn = mol fraction of the nth substance listed; conditions: 101 kPa, Liquid, Large sample (1 g) DSC
[2] = molar heat capacity at constant pressure; conditions: 101.33 kPa, Liquid, Large sample (1 g) DSC

CC(O)COC(C)COC(C)CO (stereo unspecified) [2-[2-(2-hydroxypropoxy)propoxy]-1-propanol] + O
molar heat capacity at constant pressure [J/K/mol], [1]
Conditions	x1 = 0.2	x1 = 0.4	x1 = 0.5	x1 = 0.6	x1 = 0.8
303.15 K	158.9 ± 3.9	234.7 ± 5.7	271.9 ± 6.7	309 ± 7.6	381.4 ± 9.3
308.15 K	160.5 ± 3.9	237.2 ± 5.8	275.1 ± 6.7	312.1 ± 7.6	385.8 ± 9.5
313.15 K	162.2 ± 4	240 ± 5.9	278.1 ± 6.8	315.6 ± 7.7	389.6 ± 9.5
318.15 K	163.4 ± 4	241.6 ± 5.9	280.9 ± 6.9	317.9 ± 7.8	392.4 ± 9.6
323.15 K	164.9 ± 4	244.5 ± 6	283.2 ± 6.9	321.6 ± 7.9	396.3 ± 9.7
328.15 K	166.2 ± 4.1	246.6 ± 6	286.1 ± 7	324.7 ± 8	400.5 ± 9.8
333.15 K	167.8 ± 4.1	249.9 ± 6.1	289.3 ± 7.1	328.3 ± 8	404.1 ± 9.9
338.15 K	169.1 ± 4.1	252.2 ± 6.2	292.5 ± 7.2	331.3 ± 8.1	407.6 ± 10
343.15 K	170.7 ± 4.2	254.8 ± 6.2	295.5 ± 7.2	334.9 ± 8.2	411.8 ± 10
348.15 K	172.2 ± 4.2	257.4 ± 6.3	298.5 ± 7.3	338.2 ± 8.3	416 ± 10
353.15 K	173.9 ± 4.3	260.2 ± 6.4	302.1 ± 7.4	342.1 ± 8.4	420.3 ± 10

OCCCOCCCO [4-oxa-1,7-heptanediol]
[2]
Conditions	molar heat capacity at constant pressure [J/K/mol]
303.15 K	329 ± 6
313.15 K	335.9 ± 5.6
323.15 K	342 ± 5.5
333.15 K	348.5 ± 5.4
343.15 K	355.1 ± 5.5
353.15 K	362.6 ± 5.6
